The text below walks through data of publication PMC9182211, “Structural Investigation of the Interaction Mechanism between Chlorogenic Acid and AMPA Receptor via In Silico Approaches” (Molecules, 2022).

Broadly, the Kd is the constant that tells how readily two partners part at equilibrium. High values mean weaker binding, low ones tighter binding.

Molecules are shown by their SMILES.

The assay has as its target T1, GluA1 (glutamate ionotropic receptor AMPA type subunit 1) (Homo sapiens, UniProt P42261).
T1 construct: gene GRIA1; Recombinant human GluA1 (AMPA subtype) protein (Abcam ab112297)
The assay is described as follows: SPR (Biacore T200, GluA1 immobilized on CM5 chip, steady-state fit). It counts as binding. On the technique in general: In SPR one partner is held on a chip, and binding of the other changes the refractive index at the surface.

T1 sequence (P42261 19-906): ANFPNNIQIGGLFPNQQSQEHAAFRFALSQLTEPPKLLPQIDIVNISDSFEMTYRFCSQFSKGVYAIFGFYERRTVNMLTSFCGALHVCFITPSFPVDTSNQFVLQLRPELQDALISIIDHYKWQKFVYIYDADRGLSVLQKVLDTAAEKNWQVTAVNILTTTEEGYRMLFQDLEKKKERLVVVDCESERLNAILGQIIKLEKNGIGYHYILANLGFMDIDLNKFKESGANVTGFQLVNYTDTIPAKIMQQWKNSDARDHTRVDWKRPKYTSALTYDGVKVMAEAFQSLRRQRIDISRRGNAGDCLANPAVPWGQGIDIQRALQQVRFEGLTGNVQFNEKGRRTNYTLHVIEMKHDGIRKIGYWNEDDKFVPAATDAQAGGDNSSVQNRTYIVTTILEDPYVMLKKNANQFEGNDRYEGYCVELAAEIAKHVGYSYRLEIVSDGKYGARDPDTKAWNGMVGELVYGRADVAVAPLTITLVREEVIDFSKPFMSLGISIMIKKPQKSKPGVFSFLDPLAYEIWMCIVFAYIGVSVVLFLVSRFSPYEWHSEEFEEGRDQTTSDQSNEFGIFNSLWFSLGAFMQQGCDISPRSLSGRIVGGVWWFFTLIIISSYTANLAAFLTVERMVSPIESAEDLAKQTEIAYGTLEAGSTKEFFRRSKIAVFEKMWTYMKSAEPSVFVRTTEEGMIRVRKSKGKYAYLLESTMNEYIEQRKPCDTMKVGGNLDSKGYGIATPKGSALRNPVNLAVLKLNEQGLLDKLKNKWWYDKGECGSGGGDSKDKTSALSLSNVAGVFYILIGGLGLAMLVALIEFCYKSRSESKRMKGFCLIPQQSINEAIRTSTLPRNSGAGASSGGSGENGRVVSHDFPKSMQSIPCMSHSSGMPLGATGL

The compound `O=C(/C=C/c1ccc(O)c(O)c1)O[C@@H]1C[C@](O)(C(=O)O)C[C@@H](O)[C@H]1O` [CGA, (1S,3R,4R,5R)-3-[(E)-3-(3,4-dihydroxyphenyl)prop-2-enoyl]oxy-1,4,5-trihydroxycyclohexane-1-carboxylic acid] returned a Kd of 496 µM.
